Values quoted from earlier work, collected in patent US20090325155A1, “Aureobasin a synthetase” (priority 2005, published 2009).
Starred links: 1 amine or outer side, 2 acyl side, 3 side chain; linkers in the order of their positions; H or OH if unused. Non-standard residues stand in square brackets, D forms with d. Residues, ends and D or L forms follow the SMILES beside them. ξ: configuration not given here. NMeVal(β-OH) = CN[C@H](C(=O)O)C(C)(C)O; X1 = CCC(C)[C@@H](O[*:1])C(=O)[*:2]; NMeF = CN[C@@H](Cc1ccccc1)C(=O)O; Ile(3ξ) = CCC(C)[C@H](N)C(=O)O; NMeV = CN[C@H](C(=O)O)C(C)C

Assays:
[1] = system: Aspergillus spp.; details: third major human pathogen
[2] = system: Cryptococcus neoformans
[3] = system: a number of fungi, including yeasts, such as Saccharomyces cerevisiae and Schizosaccharomyces pombe; details: low concentration toxic against a number of fungi
[4] = system: Candida spp

For CCC(C)[C@@H]1NC(=O)[C@@H]2CCCN2C(=O)[C@H](Cc2ccccc2)N(C)C(=O)[C@H](Cc2ccccc2)NC(=O)[C@H](C(C)C)N(C)C(=O)[C@@H](C(C)CC)OC(=O)[C@H](C(C)(C)O)N(C)C(=O)[C@H](CC(C)C)NC(=O)[C@H](C(C)C)N(C)C1=O (stereo partly drawn) [AbA, Aureobasidin A] (cyclo(F[NMeF]P[Ile(3ξ)][NMeV]L[NMeVal(β-OH)][X1][NMeV])), the “toxicity to fungal pathogen” value [1] is given as “not toxic”, the “cidal to fungal pathogen” value [2] is given as “cidal” and the “concentration at which toxic” value [3] is given as 0.1 to 0.5 µg/mL. For the same compound, the “cidal to fungal pathogen” value [4] was “cidal”.
